Results as given in patent publication US20250199015A1, “CYCLIN-DEPENDENT KINASE 2 INHIBITORS FOR MEDICAL TREATMENT” (INCYCLIX BIO, LLC, priority 2022, published 2025).
Entries after “also recorded” stand apart in the source; their conditions may differ.

Columns and labels:
[1] = test system: MKN-1 cell loaded Hollow Fibers; assay: Mouse hollow fiber assay (CellTiter Glo); format: in vivo, mice; settings: 75, 100, 150 mg/kg twice daily, Day 16
Method: (§1) The mouse hollow fiber assay was conducted using three tumor cell lines, OVCAR-3 (ovarian), MKN-1 (gastric), and HCC-1569 (breast), 1e7 OVCAR-3, 5e6 MKN-1, and 1e7 HCC-1569 cells were loaded into Hollow Fibers, placed in cell culture dishes containing RPMI-1640 with 20% FCS and 1% penicillin/streptomycin, and were equilibrated in an incubator at 37 C, 5% CO2 overnight. On Day 0, three fibers were implanted in two different compartments: subcutaneous and intraperitoneal of twenty-four female NMRI nude mice ages 4-5 weeks. […] Female NMRI nude mice were implanted both subcutaneously and intraperitoneally with HCC-1569, MKN1, and OVCAR3 tumor cell-loaded Hollow Fibers on Day 0. The number of animals alive on Day 0 (implantation) and on Day 16 (necropsy) in each group is shown in parentheses in the legend.
MKN-1 cell loaded Hollow Fibers were implanted both subcutaneously and intraperitoneally into female NMRI nude mice on Day 0. Hollow Fibers were collected during necropsy on Day 16 and analyzed using a CellTiter Glo® assay.

[2] = biological target: multidrug resistance mutation (MDR) 1 (Homo sapiens, UniProt P08183); assay: Transporter inhibition; format: in vitro ADME
[3] = test system: BT474 human breast carcinoma cells; assay: Crystal violet colony assay; format: cell-based
Method: The T47D human breast carcinoma cell line was grown in RPMI-1640/1× Glutamax/1× Insulin/10% fetal bovine serum and was plated at 10,000 cells/well in Corning 6 well tissue culture treated plates. The BT474 human breast carcinoma cell line was grown in DMEM/1× Glutamax/1× Insulin/10% fetal bovine serum and was plated at 25,000 cells/well in Corning 6 well tissue culture treated plates. Cells were incubated at 37° C. for 24 hours prior to addition of treatment. […] Plates were collected at week 2 and 3, at week 3, 2 plates with only CDK4/6i were switched to combination treatment. The remaining plates were collected at weeks 5 and 8. Collection was performed by washing wells with PBS before incubating 5 minutes with 0.1% crystal violet/20% methanol. Dye was removed and wells washed 4 times with PBS before being scanned at 1200 dpi. Image J was used to count the % area and colony size for each well. Graph pad was used for analysis.

Kuramochi cells = assay: CellTiter Glo cell proliferation assay; format: cell-based, human; settings: CCNE1 gained, six days
Method: (§2) Plates were returned to the incubator for six additional days. On day six post dosing, plates were removed and treated with CellTiter Glo reagent following manufacturer's specifications. Plates were incubated 45 minutes at room temperature and run on Biotek luminometer with 1 sec/well detection. Results were converted to Microsoft Excel and transferred to Graphpad Prism for analysis. […] These cell types are distinguished by either gained of cyclin E1 expression or activation (Kuramochi) or intrinsic amplification of cyclin E1 (OVCAR-3, COV318).
The Kuramochi human ovarian carcinoma cell line was grown in RPMI-1640/1× Glutamax/10% fetal bovine serum and the FUOV-1 human ovarian carcinoma cell line was grown in DMEM/F12/1× Glutamax/10% fetal bovine serum and both were plated at 1,000 cells/well in Corning 96 well white wall/clear bottom tissue culture treated plates. […] Plates were removed from incubator at each specified timepoint and treated with CellTiter-Glo (Promega, Inc) following manufacturer specifications. Plates were then read on CLARIOstar luminometer with 1 sec/well integration. Results were converted to Microsoft Excel and transferred to GraphPad Prism for Analysis (FIG. 16A-B).

Plasma protein binding = format: in vitro ADME; settings: across all species tested, read-out: bound to plasma proteins
[4] = test system: BALB/c-3T3 mouse fibroblasts; assay: In vitro 3T3 NRU phototoxicity test; format: cell-based; settings: UVA 2.5 J/cm^2 vs dark, Neutral Red
Method: BALB/c-3T3 mouse fibroblasts (ATCC) were seeded in 96-well plates at 15,000 cells per well, and grown for 24 hr in DMEM supplemented with 10% FBS, 100 U/mL penicillin, and 100 mg/L streptomycin at 37° C., humidified with 5% CO2.
All test articles were solubilized and serially diluted in DMSO, with the exception of histidine, which was solubilized and diluted in HBSS. All DMSO stocks were diluted in HBSS at the final testing concentrations. The final concentration of DMSO for all test articles was 1%. At the start of the assay, the growth medium was removed from the plates and replaced with test article dilutions. Six replicates were used for each concentration and two plates were prepared for each test article. The cells were incubated in the dark at 37° C., humidified with 5% CO2 with test articles for 1 hr. After the 1 hr incubation period, one plate of each test article was exposed to UVA light, 2.5 J/cm^2 over 18 min which is sufficient to induce a phototoxic response, while the second plate was incubated in the dark at room temperature for the same period of time. At the end of this incubation period, both plates were washed with PBS and fresh medium was added to each well. The plates were incubated at 37° C., humidified with 5% CO2 overnight. […] Cellular Neutral Red was measured by its absorbance at 540 nm.

COV318 cells = assay: CellTiter Glo cell proliferation assay; format: cell-based, human; settings: CCNE1 amplified, six days
Method: as §2

[5] = Mouse hollow fiber assay, animal weight; format: in vivo, mice; settings: 75, 100, 150 mg/kg twice daily
Method: as §1

[6] = Functional observational battery in 28-day repeat-dose toxicity study; format: in vivo, rats; settings: any dose level
Text: Safety pharmacology studies described more fully below included a functional observational battery (FOB) testing in a 28-day repeat-dose toxicity study in rats, electrocardiogram (ECG) evaluations in a 28-day repeat-dose toxicity study in dogs, and a single-dose respiratory safety pharmacology study in rats.

Q: Which results are given for `NS(=O)(=O)c1ccc(Nc2ncc3cc4n(c3n2)C2(CCCCC2)C(=O)NN4)cc1` [Compound I]?
A: tumor bioluminescence signal (CellTiter Glo) of Hollow Fibers [1]: only observed in mice administered Compound I intraperitoneally at 75 mg/kg twice per day; MDR1 inhibition [2]: did not inhibit; growth with both Compound I and a CDK4/6i ([3]; 300 nM each, 8 weeks): no noticeable growth after 8 weeks; time to CDK4/6i resistance ([3]; 300 nM with palbociclib or abemaciclib, up to 8 weeks): prolonged the time to CDK4/6i resistance; cell viability compared with palbociclib (Kuramochi cells): potently decreases cell viability; also recorded: at concentrations substantially lower than palbociclib; fraction unbound (Plasma protein binding): < 0.056; phototoxicity [4]: negative for causing phototoxicity; cell viability compared with palbociclib (COV318 cells): potently decreases cell viability; animal weight [5]: No animal weight changes were observed; FOB results [6]: did not affect
